Assay results from patent US6737383B1, “Herbicidal oxadiazolidines” (priority 1999, dated 2004).

Tests used:
wild oat = assay: Test B pre/postemergence wild oat; assay type: in vivo, Avena fatua
How it was run: (§1)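 Herbicidal effect was estimated by eye on a ten-point control scale after plants spent twelve to sixteen days in a greenhouse following soil or foliar treatment. Foliar sprays targeted plants at one to four leaves; all doses were formulated in a non-phytotoxic solvent with surfactant.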

pigweed = assay: Test B pre/postemergence pigweed; assay type: in vivo, Amaranthus retroflexus
How it was run: as §1

rice = assay: Test B flood test rice; assay type: in vivo, Oryza sativa
How it was run: (§2)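 Read-out is a visual response score from 0 (no effect) to 10 (complete control), assigned by comparison with untreated controls. Treatment was applied at the 2-leaf stage, and plants stayed in the greenhouse for twelve to sixteen days before scoring.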

blackgrass = assay: Test B pre/postemergence blackgrass; assay type: in vivo, Alopecurus myosuroides
How it was run: as §1

smallflower flatsedge = assay: Test B flood test smallflower flatsedge; assay type: in vivo, Cyperus difformis
How it was run: as §2

wheat = assay: Test B pre/postemergence wheat; assay type: in vivo, Triticum aestivum
How it was run: as §1

duck salad = assay: Test B flood test duck salad; assay type: in vivo, Heteranthera limosa
How it was run: as §2

surinam grass = assay: Test B pre/postemergence surinam grass; assay type: in vivo, Brachiaria decumbens
How it was run: as §1

corn = assay: Test B pre/postemergence corn; assay type: in vivo, Zea mays
How it was run: as §1

soybean = assay: Test B pre/postemergence soybean; assay type: in vivo, Glycine max
How it was run: as §1

sugar beet = assay: Test B pre/postemergence sugar beet; assay type: in vivo, Beta vulgaris
How it was run: as §1

velvetleaf = assay: Test B pre/postemergence velvetleaf; assay type: in vivo, Abutilon theophrasti
How it was run: as §1

rape = assay: Test B pre/postemergence rape; assay type: in vivo, Brassica napus
How it was run: as §1

bedstraw = assay: Test B pre/postemergence bedstraw; assay type: in vivo, Galium aparine
How it was run: as §1

crabgrass = assay: Test B pre/postemergence crabgrass; assay type: in vivo, Digitaria sanguinalis
How it was run: as §1

purple nutsedge = assay: Test B pre/postemergence purple nutsedge; assay type: in vivo, Cyperus rotundus
How it was run: as §1

[1] = Preemergence, Rate 62 g/ha, scale of 0 to 10 where 0 is no effect and 10 is complete control
[2] = Preemergence, Rate 250 g/ha, scale 0 to 10, 0 is no effect, 10 is complete control
[3] = Preemergence, Rate 500 g/ha, scale 0 to 10 (0 no effect, 10 complete control)
[4] = Rate 125 g/ha, Postemergence, scale 0 to 10
[5] = Rate 500 g/ha, Postemergence, scale 0 to 10
[6] = Preemergence, Rate 125 g/ha, 0 is no effect, 10 is complete control
[7] = Rate 62 g/ha, Postemergence, scale of 0 to 10 where 0 is no effect and 10 is complete control
[8] = Rate 62 g/ha, headed Pre-emergence (flood test species), scale 0 to 10 (0 no effect, 10 complete control)
[9] = Rate 125 g/ha, Pre-emergence, flood test species, scale 0 to 10 where 0 is no effect and 10 is complete control
[10] = Rate 250 g/ha, Pre-emergence, flood-test species, scale 0 to 10, 0 is no effect, 10 is complete control
[11] = Rate 500 g/ha, headed Pre-emergence (flood test species), scale 0 to 10 (0 no effect, 10 complete control)

COc1nc(OC)nc(N(C(=O)n2oc(=O)n(C(C)C)c2=O)C(C)C)n1 [Compound 182]
0: Wild oats plant response rating (wild oat; [1]) | Wild oats plant response rating (wild oat; [2]) | Wild oats plant response rating (wild oat; [3]) | Wild oats plant response rating (wild oat; [4]) | Plant response rating (0 to 10; 0 is no effect, 10 is complete control), Wild oats (wild oat; Rate 250 g/ha, Postemergence) | Wild oats plant response rating (wild oat; [5]) | Redroot pigweed plant response rating (pigweed; [1]) | Redroot pigweed plant response rating (0 to 10 scale) (pigweed; [6]) | Redroot pigweed plant response rating (pigweed; [2]) | Redroot pigweed plant response rating (pigweed; [3]) | Redroot pigweed plant response rating (pigweed; [7]) | Redroot pigweed plant response rating (pigweed; [4]) | Plant response rating (0 to 10; 0 is no effect, 10 is complete control), Redroot pigweed (pigweed; Rate 250 g/ha, Postemergence) | Redroot pigweed plant response rating (pigweed; [5]) | Rice plant response rating (rice; [8]) | Rice plant response rating (rice; [9]) | Rice plant response rating (rice; [10]) | Plant response rating, Rice (rice; [11]) | Blackgrass plant response rating (blackgrass; [1]) | Blackgrass plant response rating (0 to 10 scale) (blackgrass; [6]) | Blackgrass plant response rating (blackgrass; [2]) | Blackgrass plant response rating (blackgrass; [3]) | Blackgrass plant response rating (blackgrass; [7]) | Blackgrass plant response rating (blackgrass; [4]) | Plant response rating (0 to 10; 0 is no effect, 10 is complete control), Blackgrass (blackgrass; Rate 250 g/ha, Postemergence) | Blackgrass plant response rating (blackgrass; [5]) | S. Flatsedge plant response rating (smallflower flatsedge; [8]) | S. Flatsedge plant response rating (smallflower flatsedge; [9]) | S. Flatsedge plant response rating (smallflower flatsedge; [10]) | S. Flatsedge plant response rating (smallflower flatsedge; Rate 500 g/ha, Pre-emergence, flood test species, scale 0 to 10 (0 no effect, 10 complete control)) | Wheat plant response rating (wheat; [1]) | Wheat plant response rating (wheat; [2]) | Wheat plant response rating (wheat; [3]) | Wheat plant response rating (wheat; [4]) | Plant response rating (0 to 10; 0 is no effect, 10 is complete control), Wheat (wheat; Rate 250 g/ha, Postemergence) | Wheat plant response rating (wheat; [5]) | Ducksalad plant response rating (duck salad; [8]) | Ducksalad plant response rating (duck salad; [9]) | Ducksalad plant response rating (duck salad; [10]) | Plant response rating, Ducksalad (duck salad; [11]) | B. signalgrass plant response rating (surinam grass; [1]) | B. signalgrass plant response rating (0 to 10 scale) (surinam grass; [6]) | B. signalgrass plant response rating (surinam grass; [2]) | B. signalgrass plant response rating (surinam grass; [3]) | B. signalgrass plant response rating (surinam grass; [7]) | B. signalgrass plant response rating (surinam grass; Rate 125 g/ha, Postemergence, scale 0 (no effect) to 10 (complete control)) | Plant response rating, B. signalgrass (surinam grass; Rate 250 g/ha, Postemergence, scale 0 to 10, 0 is no effect, 10 is complete control) | B. signalgrass plant response rating (surinam grass; Rate 500 g/ha, Postemergence, scale 0 to 10, 0 no effect, 10 complete control) | Corn plant response rating (corn; [1]) | Corn plant response rating (0 to 10 scale) (corn; [6]) | Corn plant response rating (corn; [2]) | Corn plant response rating (corn; [3]) | Corn plant response rating (corn; [7]) | Corn plant response rating (corn; [4]) | Plant response rating (0 to 10; 0 is no effect, 10 is complete control), Corn (corn; Rate 250 g/ha, Postemergence) | Corn plant response rating (corn; [5]) | Soybean plant response rating (soybean; [1]) | Soybean plant response rating (0 to 10 scale) (soybean; [6]) | Soybean plant response rating (soybean; [2]) | Soybean plant response rating (soybean; [3]) | Soybean plant response rating (soybean; [7]) | Soybean plant response rating (soybean; [4]) | Plant response rating (0 to 10; 0 is no effect, 10 is complete control), Soybean (soybean; Rate 250 g/ha, Postemergence) | Soybean plant response rating (soybean; [5]) | Sugarbeets plant response rating (sugar beet; [1]) | Sugarbeets plant response rating (0 to 10 scale) (sugar beet; [6]) | Sugarbeets plant response rating (sugar beet; [2]) | Sugarbeets plant response rating (sugar beet; [3]) | Sugarbeets plant response rating (sugar beet; [7]) | Sugarbeets plant response rating (sugar beet; [4]) | Plant response rating (0 to 10; 0 is no effect, 10 is complete control), Sugarbeets (sugar beet; Rate 250 g/ha, Postemergence) | Sugarbeets plant response rating (sugar beet; [5]) | Velvetleaf plant response rating (velvetleaf; [1]) | Velvetleaf plant response rating (velvetleaf; [2]) | Velvetleaf plant response rating (velvetleaf; [3]) | Velvetleaf plant response rating (velvetleaf; [4]) | Plant response rating (0 to 10; 0 is no effect, 10 is complete control), Velvetleaf (velvetleaf; Rate 250 g/ha, Postemergence) | Velvetleaf plant response rating (velvetleaf; [5]) | Rape plant response rating (rape; [1]) | Rape plant response rating (0 to 10 scale) (rape; [6]) | Rape plant response rating (rape; [2]) | Rape plant response rating (rape; [3]) | Rape plant response rating (rape; [7]) | Rape plant response rating (rape; [4]) | Plant response rating (0 to 10; 0 is no effect, 10 is complete control), Rape (rape; Rate 250 g/ha, Postemergence) | Rape plant response rating (rape; [5]) | Bedstraw plant response rating (bedstraw; [1]) | Bedstraw plant response rating (0 to 10 scale) (bedstraw; [6]) | Bedstraw plant response rating (bedstraw; [2]) | Bedstraw plant response rating (bedstraw; [3]) | Bedstraw plant response rating (bedstraw; [7]) | Bedstraw plant response rating (bedstraw; [4]) | Plant response rating (0 to 10; 0 is no effect, 10 is complete control), Bedstraw (bedstraw; Rate 250 g/ha, Postemergence) | Bedstraw plant response rating (bedstraw; [5]) | Crabgrass plant response rating (crabgrass; [1]) | Crabgrass plant response rating (0 to 10 scale) (crabgrass; [6]) | Crabgrass plant response rating (crabgrass; [2]) | Crabgrass plant response rating (crabgrass; [3]) | Crabgrass plant response rating (crabgrass; [7]) | Crabgrass plant response rating (crabgrass; [4]) | Plant response rating (0 to 10; 0 is no effect, 10 is complete control), Crabgrass (crabgrass; Rate 250 g/ha, Postemergence) | Crabgrass plant response rating (crabgrass; [5]) | Nutsedge plant response rating (purple nutsedge; [1]) | Nutsedge plant response rating (0 to 10 scale) (purple nutsedge; [6]) | Nutsedge plant response rating (purple nutsedge; [2]) | Nutsedge plant response rating (purple nutsedge; [3]) | Nutsedge plant response rating (purple nutsedge; [7]) | Nutsedge plant response rating (purple nutsedge; [4]) | Plant response rating (0 to 10; 0 is no effect, 10 is complete control), Nutsedge (purple nutsedge; Rate 250 g/ha, Postemergence) | Nutsedge plant response rating (purple nutsedge; [5])
